Experimental findings from ChEMBL document CHEMBL5126559, “Insights into the structure-activity relationship of a type III secretion system inhibitor, aurodox” (Bioorg Med Chem Lett, 2022) are described below.

In brackets after ≈: the same amount, converted by molar mass.

Assay [1] in a line: Inhibition of bacterial type III secretion system in enteropathogenic Escherichia coli.
In a further assay the test system is Escherichia coli. Briefly: Antibacterial activity against enteropathogenic Escherichia coli. It is filed as functional, organism-based.

Usually IC50 stands for the midpoint of a concentration-inhibition curve. Read a high IC50 as weaker potency in that assay. For the compound `C/C=C\C=C\[C@@H]1O[C@](O)([C@H](CC)C(=O)NC/C=C/C=C(\C)[C@@H](OC)[C@@H](C)[C@@H]2O[C@H](/C=C/C=C/C=C(\C)C(=O)c3c(O)ccn(C)c3=O)[C@H](O)[C@@H]2O)[C@H](O)[C@H](O)C1(C)C`, the IC50 in assay [1] was 1.42 µg/mL (≈ 1.75 µM); in the assay on Escherichia coli, 32.8 µg/mL (≈ 40.4 µM).
For `CO[C@H](/C(C)=C/C=C/CN)[C@@H](C)[C@@H]1O[C@H](/C=C/C=C/C=C(\C)C(=O)c2c(O)ccn(C)c2=O)[C@H](O)[C@@H]1O` the same measures were above 100 µg/mL and above 100 µg/mL.
Consider `C/C=C\C=C\[C@@H]1O[C@](O)([C@H](CC)C(=O)NC/C=C/C=C(\C)[C@@H](OC)[C@@H](C)[C@@H]2O[C@H](/C=C/C=C/C=C(\C)C(=O)c3c(O)ccn(C)c3=O)[C@@H]3OC(=O)O[C@@H]32)[C@@H]2OC(=O)O[C@@H]2C1(C)C`, for which the IC50 (in assay [1]; in the assay on Escherichia coli) was above 100 µg/mL each time.
As for `C/C=C\C=C\[C@@H]1O[C@](O)([C@H](CC)C(=O)NC/C=C/C=C(\C)[C@@H](OC)[C@@H](C)[C@@H]2O[C@H](/C=C/C=C/C=C(\C)C(=O)c3c(OC)ccn(C)c3=O)[C@H](O)[C@@H]2O)[C@H](O)[C@H](O)C1(C)C`, the values for the concentration for half-maximal inhibition (IC50) (in assay [1]; in the assay on Escherichia coli) were 4.82 µg/mL (≈ 5.84 µM) and above 100 µg/mL, respectively.
In the case of `C/C=C\C=C\[C@@H]1O[C@](O)([C@H](CC)C(=O)NC/C=C/C=C(\C)[C@@H](OC)[C@@H](C)[C@@H]2O[C@H](/C=C/C=C/C=C(\C)C(=O)c3c([O-])ccn(C)c3=O)[C@H](O)[C@@H]2O)[C@H](O)[C@H](O)C1(C)C.[Na+]`, the values for the IC50 (in assay [1]; in the assay on Escherichia coli) were 2.29 µg/mL and 53.9 µg/mL, respectively.
For `C/C=C\C=C\[C@@H]1O[C@]2(O)C(CC)C(=O)O[C@@H]2[C@H](O)C1(C)C` (some centres not stated) the same measures were above 100 µg/mL and above 100 µg/mL.
`C/C=C\C=C\[C@@H]1O[C@](O)([C@H](CC)C(=O)NC/C=C/C=C(\C)[C@@H](OC)[C@@H](C)[C@@H]2O[C@H](/C=C/C=C/C=C(\C)C(=O)c3c(O)ccn(C)c3=O)[C@H](O)[C@@H]2O)[C@H](O)[C@H](O)C1(C)C.[MgH2]`: the IC50 in assay [1] was 1.75 µg/mL; in the assay on Escherichia coli it was 30.6 µg/mL.
Take `C/C=C\C=C\[C@@H]1O[C@](O)([C@H](CC)C(=O)NC/C=C/C=C(\C)[C@@H](OC)[C@@H](C)[C@@H]2O[C@H](/C=C/C=C/C=C(\C)C(=O)c3c(OC(=O)c4ccccc4)ccn(C)c3=O)[C@H](O)[C@@H]2O)[C@H](O)[C@H](O)C1(C)C`: the figures for the IC50 (in assay [1]; in the assay on Escherichia coli) were 1.45 µg/mL (≈ 1.58 µM) and above 100 µg/mL, respectively.
For `C/C=C\C=C\[C@@H]1O[C@](O)([C@H](CC)C(=O)NC/C=C/C=C(\C)[C@@H](OC)[C@@H](C)[C@@H]2O[C@H](/C=C/C=C/C=C(\C)C(=O)c3c(OS(=O)(=O)c4ccc(C)cc4)ccn(C)c3=O)[C@H](O)[C@@H]2O)[C@H](O)[C@H](O)C1(C)C` the same measures were 19 µg/mL (≈ 19.7 µM) and above 100 µg/mL.
Take `C/C=C\C=C\[C@@H]1O[C@](O)([C@H](CC)C(=O)NC/C=C/C=C(\C)[C@@H](OC)[C@@H](C)[C@@H]2O[C@H](/C=C/C=C/C=C(\C)C(=O)c3c(O)ccn(C)c3=O)[C@@H]3OC(=O)O[C@@H]32)[C@H](O)[C@H](O)C1(C)C`: the IC50 (in assay [1]; in the assay on Escherichia coli) was above 100 µg/mL in each case.
For the compound `C/C=C\C=C\[C@@H]1O[C@](O)([C@H](CC)C(=O)NC/C=C/C=C(\C)[C@@H](OC)[C@@H](C)[C@@H]2O[C@H](/C=C/C=C/C=C(\C)C(=O)c3c(OC(=O)CC)ccn(C)c3=O)[C@H](O)[C@@H]2O)[C@H](O)[C@H](O)C1(C)C`, the 50% inhibitory concentration (IC50) was found to be 1.19 µg/mL (≈ 1.37 µM) in assay [1] and 31.1 µg/mL (≈ 35.9 µM) in the assay with Escherichia coli.
For `C=CCOc1ccn(C)c(=O)c1C(=O)/C(C)=C/C=C/C=C/[C@H]1O[C@@H]([C@H](C)[C@H](OC)/C(C)=C/C=C/CNC(=O)[C@@H](CC)[C@@]2(O)O[C@@H](/C=C/C=C\C)C(C)(C)[C@@H](O)[C@H]2O)[C@@H](O)[C@H]1O` the same measures were 4.16 µg/mL (≈ 4.89 µM) and above 100 µg/mL.
For `C/C=C\C=C\[C@@H]1O[C@](O)([C@H](CC)C(=O)NC/C=C/C=C(\C)[C@@H](OC)[C@@H](C)[C@@H]2O[C@H](/C=C/C=C/C=C(\C)C(=O)c3c(OC(C)=O)ccn(C)c3=O)[C@H](O)[C@@H]2O)[C@H](O)[C@H](O)C1(C)C` the same measures were 1.43 µg/mL (≈ 1.68 µM) and 36.1 µg/mL (≈ 42.3 µM).
For `C/C=C\C=C\[C@@H]1O[C@](O)([C@H](CC)C(=O)NC/C=C/C=C(\C)[C@@H](OC)[C@@H](C)[C@@H]2O[C@H](/C=C/C=C/C=C(\C)C(=O)c3c(OS(C)(=O)=O)ccn(C)c3=O)[C@H](O)[C@@H]2O)[C@H](O)[C@H](O)C1(C)C` the same measures were 4.65 µg/mL (≈ 5.23 µM) and above 100 µg/mL.
Take `C/C=C\C=C\[C@@H]1O[C@](O)([C@H](CC)C(=O)NC/C=C/C=C(\C)[C@@H](OC)[C@@H](C)[C@@H]2O[C@H](/C=C/C=C/C=C(\C)C(=O)c3c([O-])ccn(C)c3=O)[C@H](O)[C@@H]2O)[C@H](O)[C@H](O)C1(C)C.[Li+]`: the half-inhibitory concentration (IC50) was determined as 2.52 µg/mL in assay [1] and 49.5 µg/mL with Escherichia coli.
Consider `C/C=C\C=C\[C@@H]1O[C@](O)([C@H](CC)C(=O)NC/C=C/C=C(\C)[C@@H](OC)[C@@H](C)[C@@H]2O[C@H](/C=C/C=C/C=C(\C)C(=O)c3c(OCOC(N)=O)ccn(C)c3=O)[C@H](O)[C@@H]2O)[C@H](O)[C@H](O)C1(C)C`, for which the IC50 in assay [1] is 10.4 µg/mL (≈ 11.8 µM); in the assay on Escherichia coli, above 100 µg/mL.
